We go through 13 compounds from PubChem BioAssay AID190 (DTP/NCI, 2004).

This test deals with AKR/Lw mice, AKR lymphoma ip, median survival T/C. The test can be described thus: NCI In Vivo Anticancer Drug Screen. Data for tumor model Lymphoma AKR (Transplanted) (intraperitoneal) in AKR/Lw mice. To be noted: endpoint: median survival time, higher = longer survival. As for the experimental part: The antitumor activity of compounds was measured in mice bearing transplantable tumors. Survival or tumor size were measured and the results are expressed as the measurement made in the treated group (T) divided by the measurement made in the vehicle treated control group (C). The tumor model used in this assay is Lymphoma AKR (Transplanted) (intraperitoneal) in AKR/Lw mice

[1] abbreviates: dose: 100.0 mg/kg/injection, schedule: Q01DX001 (ip), vehicle: Klucel (hydroxypropylcellulose) (HPC).
[2] abbreviates: dose: 200.0 mg/kg/injection, schedule: Q01DX001 (ip), vehicle: Klucel (hydroxypropylcellulose) (HPC).
Setting [3] is: dose: 400.0 mg/kg/injection, schedule: Q01DX001 (ip), vehicle: Klucel (hydroxypropylcellulose) (HPC).
The mark [4] stands for this setting: dose: 100.0 mg/kg/injection, schedule: Q01DX001 (ip), vehicle: saline with Tween-80.
Setting [5] is: dose: 400.0 mg/kg/injection, schedule: Q01DX001 (ip), vehicle: saline with Tween-80.
Where [6] appears, read: dose: 100.0 mg/kg/injection, schedule: Q01DX001 (ip), vehicle: saline.
The mark [7] stands for this setting: dose: 200.0 mg/kg/injection, schedule: Q01DX001 (ip), vehicle: saline.
Setting [8] is: dose: 400.0 mg/kg/injection, schedule: Q01DX001 (ip), vehicle: saline.
[9] abbreviates: dose: 12.5 mg/kg/injection, schedule: Q01DX001 (ip), vehicle: saline.
Setting [10] is: dose: 25.0 mg/kg/injection, schedule: Q01DX001 (ip), vehicle: saline.
Where [11] appears, read: dose: 50.0 mg/kg/injection, schedule: Q01DX001 (ip), vehicle: saline.

Each structure is given as a SMILES string. Where “and” joins values, the source holds several entries; their conditions need not be identical. Equal entries are not always repeated. Inconclusive results and toxic doses are left out.

Turning to `CC[C@]1(O)C[C@H]2CN(CCc3c([nH]c4ccccc34)[C@@](C(=O)OC)(c3cc4c(cc3OC)N(C=O)[C@H]3[C@@](O)(C(=O)OC)[C@H](OC(C)=O)[C@]5(CC)C=CCN6CC[C@]43[C@@H]65)C2)C1`, the T/C runs as follows: (dose: 0.01 mg/kg/injection, schedule: Q10DX002 (ip), vehicle: saline) 113 % of control; (dose: 0.02 mg/kg/injection, schedule: Q01DX001 (ip), vehicle: saline) 110 % of control; (dose: 0.02 mg/kg/injection, schedule: Q04DX003 (ip), vehicle: saline) 86 % of control; (dose: 0.02 mg/kg/injection, schedule: Q10DX002 (ip), vehicle: saline) 119 % of control; (dose: 0.03 mg/kg/injection, schedule: Q04DX003 (ip), vehicle: saline) 93 % of control and 107 % of control and 114 % of control; (dose: 0.03 mg/kg/injection, schedule: Q10DX002 (ip), vehicle: saline) 119 % of control. For the same compound, the T/C is 101 % of control (dose: 0.05 mg/kg/injection, schedule: Q01DX001 (ip), vehicle: saline); 94 % of control (dose: 0.05 mg/kg/injection, schedule: Q04DX003 (ip), vehicle: saline); 110 % of control (dose: 0.06 mg/kg/injection, schedule: Q04DX002 (ip), vehicle: saline); 111 % of control and 116 % of control (dose: 0.06 mg/kg/injection, schedule: Q04DX003 (ip), vehicle: saline); 103 % of control (dose: 0.1 mg/kg/injection, schedule: Q01DX001 (ip), vehicle: saline); 94 % of control (dose: 0.1 mg/kg/injection, schedule: Q04DX003 (ip), vehicle: saline). Also, the T/C reads like this: (dose: 0.12 mg/kg/injection, schedule: Q01DX001 (ip), vehicle: saline) 100 % of control and 111 % of control and 119 % of control; (dose: 0.12 mg/kg/injection, schedule: Q01DX009 (ip), vehicle: saline) 109 % of control; (dose: 0.13 mg/kg/injection, schedule: Q04DX002 (ip), vehicle: water) 90 % of control and 95 % of control; (dose: 0.2 mg/kg/injection, schedule: Q04DX003 (ip), vehicle: saline) 94 % of control; (dose: 0.25 mg/kg/injection, schedule: Q01DX009 (ip), vehicle: saline) 109 % of control; (dose: 0.4 mg/kg/injection, schedule: Q04DX003 (ip), vehicle: saline) 118 % of control. Further, the T/C is 223 % of control (dose: 0.5 mg/kg/injection, schedule: Q04DX002 (ip), vehicle: saline); 107 % of control and 109 % of control (dose: 0.5 mg/kg/injection, schedule: Q04DX002 (ip), vehicle: water); 157 % of control (dose: 0.75 mg/kg/injection, schedule: Q01DX001 (ip), vehicle: saline); 359 % of control (dose: 1.0 mg/kg/injection, schedule: Q04DX003 (ip), vehicle: saline); 33 % of control (dose: 1.0 mg/kg/injection, schedule: Q10DX002 (ip), vehicle: saline); 68 % of control (dose: 1.5 mg/kg/injection, schedule: Q10DX002 (ip), vehicle: saline). Further, the T/C by setting is: (dose: 0.2 micrograms/kg/injection, schedule: Q01DX009 (ip), vehicle: saline) 103 % of control; (dose: 0.5 micrograms/kg/injection, schedule: Q01DX009 (ip), vehicle: saline) 100 % of control; (dose: 0.6 micrograms/kg/injection, schedule: Q01DX009 (ip), vehicle: saline) 96 % of control; (dose: 1.0 micrograms/kg/injection, schedule: Q01DX009 (ip), vehicle: saline) 86 % of control and 100 % of control; (dose: 1.2 micrograms/kg/injection, schedule: Q01DX009 (ip), vehicle: saline) 87 % of control; (dose: 2.0 micrograms/kg/injection, schedule: Q01DX009 (ip), vehicle: saline) 94 % of control. Further, the T/C (dose: 6.0 micrograms/kg/injection, schedule: Q01DX009 (ip), vehicle: saline) was 102 % of control and 114 % of control; the T/C (dose: 15.0 micrograms/kg/injection, schedule: Q01DX009 (ip), vehicle: saline) was 122 % of control; the T/C (dose: 20.0 micrograms/kg/injection, schedule: Q01DX009 (ip), vehicle: saline) was 97 % of control; the T/C (dose: 25.0 micrograms/kg/injection, schedule: Q01DX009 (ip), vehicle: saline) was 97 % of control; the T/C (dose: 30.0 micrograms/kg/injection, schedule: Q01DX009 (ip), vehicle: saline) was 112 % of control; the T/C (dose: 50.0 micrograms/kg/injection, schedule: Q01DX009 (ip), vehicle: saline) was 102 % of control. Besides, the T/C reads like this: (dose: 60.0 micrograms/kg/injection, schedule: Q01DX009 (ip), vehicle: saline) 120 % of control; (dose: 100.0 micrograms/kg/injection, schedule: Q01DX009 (ip), vehicle: saline) 114 % of control.

As for `COc1ccc(N2CSC(=S)N(c3ccc(OC)cc3)C2)cc1`, the T/C was 88 % of control under setting [1], 88 % of control under setting [2] and 92 % of control under setting [3].

For `CC(=O)CC(=O)Nc1ccc([N+](=O)[O-])cc1`, the T/C by setting is: (dose: 50.0 mg/kg/injection, schedule: Q01DX001 (ip), vehicle: other) 100 % of control; (dose: 100.0 mg/kg/injection, schedule: Q01DX001 (ip), vehicle: other) 98 % of control; under setting [4], 96 % of control; (dose: 200.0 mg/kg/injection, schedule: Q01DX001 (ip), vehicle: other) 94 % of control; (dose: 400.0 mg/kg/injection, schedule: Q01DX001 (ip), vehicle: other) 86 % of control; under setting [5], 92 % of control.

Regarding `CC(=O)CC(=O)c1ccccc1`, the T/C is, setting by setting: under setting [1], 106 % of control; under setting [2], 106 % of control; under setting [3], 103 % of control.

Turning to `CCCCCCCCCCCCCCCC(=O)N(CCC#N)CCCCCCCCCN(CCC#N)C(=O)CCCCCCCCCCCCCCC`, the T/C under setting [6] was 116 % of control and the T/C under setting [7] is 94 % of control.

With `O=C(Nc1cccc(Cl)c1)Oc1ccc2ccccc2c1`, the T/C by setting is: under setting [4], 100 % of control; (dose: 100.0 mg/kg/injection, schedule: Q01DX009 (ip), vehicle: saline) 92 % of control; (dose: 200.0 mg/kg/injection, schedule: Q01DX001 (ip), vehicle: saline with Tween-80) 100 % of control; (dose: 200.0 mg/kg/injection, schedule: Q01DX009 (ip), vehicle: saline) 112 % of control; under setting [5], 105 % of control; (dose: 400.0 mg/kg/injection, schedule: Q04DX003 (ip), vehicle: saline) 93 % of control.

As to `O=C1CC2CCCC(C1)S2=O` (stereo unspecified), the T/C by setting is: under setting [6], 113 % of control; under setting [7], 89 % of control; under setting [8], 97 % of control.

With `CC1(C)CCN1Cc1ccccc1`, the T/C runs as follows: under setting [9], 97 % of control; under setting [10], 100 % of control; under setting [11], 100 % of control.

In the case of `CC1(C)N=C(N)N=C(N)N1c1cc(Cl)c(Cl)cc1Cl`, the T/C was 106 % of control (dose: 25.0 mg/kg/injection, schedule: Q01DX001 (ip), vehicle: Klucel (hydroxypropylcellulose) (HPC)); 100 % of control (dose: 35.0 mg/kg/injection, schedule: Q01DX001 (ip), vehicle: Klucel (hydroxypropylcellulose) (HPC)); 106 % of control (dose: 50.0 mg/kg/injection, schedule: Q01DX001 (ip), vehicle: Klucel (hydroxypropylcellulose) (HPC)).

For `CC(=O)CCN1C(=O)c2ccccc2C1=O`, the T/C under setting [1] was 105 % of control; the T/C under setting [2] was 105 % of control; the T/C (dose: 200.0 mg/kg/injection, schedule: Q04DX003 (ip), vehicle: Klucel (hydroxypropylcellulose) (HPC)) is 97 % of control; the T/C under setting [3] is 102 % of control; the T/C (dose: 400.0 mg/kg/injection, schedule: Q04DX003 (ip), vehicle: Klucel (hydroxypropylcellulose) (HPC)) is 89 % of control.

`O=[N+]([O-])O.[Th]`: the T/C under setting [6] is 113 % of control, the T/C under setting [7] is 109 % of control and the T/C under setting [8] was 104 % of control.

For the compound `O=C1c2ccccc2-c2ncccc21`, the T/C under setting [1] was 100 % of control, the T/C under setting [2] was 120 % of control and the T/C under setting [3] is 93 % of control.

Regarding `C1CC2CCC[N+]3=C2C(C1)CCC3` (stereo unspecified), the T/C was 100 % of control under setting [9], 100 % of control under setting [10] and 108 % of control under setting [11].
